From patent publication US11999739B2, “Antimicrobials methods of making and using the same” (BIOVERSYS AG, priority 2016, dated 2024)
Converted amounts (≈) assume the structure as drawn. Like-named read-outs stand apart in the source and are kept apart here.

Columns and labels:
[1] = test system: Staphylococcus aureus (S. aureus) 11540 strain; test: Standard microdilution MIC assay, S. aureus; format: cell-based
Outline: (§1)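 MICs obtained by CLSI-standard microdilution, quality-controlled with reference strains in parallel. Values reported as + or − relative to a 16 micrograms/mL cutoff.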

[2] = test system: Escherichia coli strain ATCC25922; test: Standard microdilution MIC assay, E. coli; format: cell-based
Outline: as §1

[3] = Rat five day safety study (bodyweight gain, reticulocyte count change); format: in vivo; conditions: male Sprague-Dawley juvenile rats, n=5, once daily slow intravenous infusion for 5 days at or near maximum-tolerated dose; for BW Result: bodyweight gain; for Hematology Result: reticulocyte count change
Experimental: The compounds of the present disclosure were tested for safety in a multi-day dosing study in rat. Key parameters that were monitored are bodyweight gain and hematological changes, particularly changes in reticulocyte counts. Male Sprague-Dawley (CD) juvenile rats were received from Charles River with double jugular vein catheters. For each compound, n=5. […] Bodyweights were recorded daily for the first 5 days (during the dosing period), then 2 to 3 times per week thereafter. Blood was collected via a jugular vein catheter into EDTA anti-coagulated tubes for complete blood counts (CBC) on Days 0 (baseline), 3 and 7. On Day 22, blood was drawn via a cardiac puncture into EDTA coated tubes for final CBC, and serum separator tubes for the complete clinical chemistry profile. The blood that was collected into serum separator tubes was allowed to clot at room temperature for approximately 30 minutes, spun in a centrifuge at 2000 rpm, and the resulting serum was aliquoted. All samples were sent on wet ice to Charles River Labs for analysis.

Enterobacteriaceae = test: CLSI broth microdilution MIC, multiresistant Enterobacteriaceae panel; format: cell-based; conditions: 68 Enterobacteriaceae, FIG. 1
Experimental: (§2) Four compounds, including Compound Nos. 120 and 162 of the present application (RX-04B and RX-04C, respectively) were tested against (i) multiresistant Enterobacteriaceae and Acinetobacter with carbapenemases; (ii) Enterobacteriaceae with MCR-1; and (iii) P. aeruginosa with altered efflux (see Tables 4 and 5). In this case, MCR-1 is relevant because its activity reduces the negative charge of lipopolysaccharides, potentially affecting binding of poly-basic molecules such as the compounds tested herein, as well as polymyxins.
(§3) MICs of the four tested compounds and comparators (amikacin, cefepime, colistin, meropenem and tigecyline) were determined by CLSI broth microdilution using pre-prepared plates (Trek Diagnostic Systems) (CLSI Approved Standard M7-A10). Carbapenemase and mcr-1 genes were detected by PCR or sequencing. Efflux levels in P. aeruginosa isolates were inferred by interpretive reading of antibiogram data.

E. coli DH10B = test: CLSI broth microdilution MIC, E. coli DH10B recipient; format: cell-based
Experimental: as §3

[4] = test system: E. coli DH10B mcr-1 transformant; test: CLSI broth microdilution MIC, E. coli DH10B mcr-1 transformant; format: cell-based
Experimental: as §3

P. aeruginosa = test: CLSI broth microdilution MIC, P. aeruginosa with altered efflux; format: cell-based; conditions: Pseudomonas aeruginosa; almost half (48%) of the MICs, FIG. 5; read-out: MIC
Experimental: as §2, §3

A. baumannii = test: CLSI broth microdilution MIC, A. baumannii; format: cell-based; conditions: 10 A. baumannii, FIG. 4
Experimental: as §2, §3

[5] = Escherichia coli, read-out: MIC

For `CC(=N)NCC[C@@H]1CCC[C@@H](c2ccc(-n3cc4cc(-c5cc(CCC[C@@H](N)C6CC6)cc(Cl)c5F)[nH]c4nc3=O)cc2)N1C` [Compound 123], the MIC [1] was at most 16 µg/mL, the MIC [2] was at most 16 µg/mL and the “BW Result” value [3] was “+ (a “+” in “BW result” indicates that the rat exhibited a weight gain of 20% or more)”. The “Hematology Result” value [3] was “+ (a “+” in “Hematology result” indicates indicates that the rat exhibited a reticulocyte count change of 65% or less)”.

For `CC(=N)NCC[C@@H]1CCC[C@@H](c2c(F)cc(-n3cc4cc(-c5cc(CCC[C@H](C)N)cc(Cl)c5F)[nH]c4nc3=O)cc2F)N1` [Compound 127], the MIC [1] was at most 16 µg/mL, the MIC [2] was at most 16 µg/mL and the “BW Result” value [3] was “+ (a “+” in “BW result” indicates that the rat exhibited a weight gain of 20% or more)”. For the same molecule, the “Hematology Result” value [3] was “+ (a “+” in “Hematology result” indicates indicates that the rat exhibited a reticulocyte count change of 65% or less)”.

With `CC(=N)NCC[C@@H]1CCC[C@@H](c2ccc(-n3cc4cc(-c5cc(CCC[C@H](C)N)cc(Cl)c5F)[nH]c4nc3=O)cc2F)N1` [Compound 152] the MIC [1] was at most 16 µg/mL, the MIC [2] was at most 16 µg/mL and the “BW Result” value [3] was “+ (a “+” in “BW result” indicates that the rat exhibited a weight gain of 20% or more)”. For the same molecule, the “Hematology Result” value [3] was “+ (a “+” in “Hematology result” indicates indicates that the rat exhibited a reticulocyte count change of 65% or less)”.

With `CC(=N)NCC[C@@H]1CCC[C@@H](c2ccc(-n3cc4cc(-c5cc(CCC[C@@H](N)CO)cc(Cl)c5F)[nH]c4nc3=O)cc2F)N1` [Compound 162] the MIC [1] was at most 16 µg/mL, the MIC [2] was at most 16 µg/mL and the “BW Result” value [3] was “− (a “−” indicates that the rat exhibited a weight gain of less than 20%)”. The “Hematology Result” value [3] was “− (a “−” indicates indicates that the rat exhibited a reticulocyte count change of greater than 65%)”.

With `C=C[C@H](N)CCCc1cc(Cl)c(F)c(-c2cc3cn(-c4ccc([C@@H]5CCC[C@@H](CCNC(C)=N)N5)c(SC)c4)c(=O)nc3[nH]2)c1` [Compound 182] the MIC [1] was at most 16 µg/mL, the MIC [2] was at most 16 µg/mL and the “BW Result” value [3] was “− (a “−” indicates that the rat exhibited a weight gain of less than 20%)”. For the same molecule, the “Hematology Result” value [3] was “− (a “−” indicates indicates that the rat exhibited a reticulocyte count change of greater than 65%)”.

For `COC[C@H](N)CCCc1cc(-c2cc3cn(-c4ccc([C@@H]5CCC[C@@H](CCNC(C)=N)N5)cc4)c(=O)nc3[nH]2)c(F)c(C(F)(F)F)c1` [Compound 190], the MIC [1] was at most 16 µg/mL, the MIC [2] was at most 16 µg/mL and the “BW Result” value [3] was “− (a “−” indicates that the rat exhibited a weight gain of less than 20%)”. For the same molecule, the “Hematology Result” value [3] was “− (a “−” indicates indicates that the rat exhibited a reticulocyte count change of greater than 65%)”.

In the case of `COC[C@H](N)CCCc1cc(-c2cc3cn(-c4ccc([C@@H]5CCC[C@@H](CCNC(C)=N)N5)c(F)c4)c(=O)nc3[nH]2)c(F)c(C(F)(F)F)c1` [Compound 191], the MIC [1] is reported as at most 16 µg/mL, the MIC [2] is reported as at most 16 µg/mL and the “BW Result” value [3] is reported as “+ (a “+” in “BW result” indicates that the rat exhibited a weight gain of 20% or more)”. The “Hematology Result” value [3] was “+ (a “+” in “Hematology result” indicates indicates that the rat exhibited a reticulocyte count change of 65% or less)”.

In the case of `COC[C@H](N)CCCc1cc(OC(F)(F)F)c(F)c(-c2cc3cn(-c4ccc([C@@H]5CCC[C@@H](CCNC(C)=N)N5)c(F)c4)c(=O)nc3[nH]2)c1` [Compound 196], the MIC [1] is reported as at most 16 µg/mL, the MIC [2] is reported as at most 16 µg/mL and the “BW Result” value [3] is reported as “+ (a “+” in “BW result” indicates that the rat exhibited a weight gain of 20% or more)”. The “Hematology Result” value [3] was “+ (a “+” in “Hematology result” indicates indicates that the rat exhibited a reticulocyte count change of 65% or less)”.

With `COC[C@H](N)CCCc1cc(-c2cc3cn(-c4ccc([C@@H]5CCC[C@@H](CCNC(C)=N)N5)c(SC)c4)c(=O)nc3[nH]2)c(F)c(C(F)(F)F)c1` [Compound 199] the MIC [1] was at most 16 µg/mL, the MIC [2] was at most 16 µg/mL and the “BW Result” value [3] was “+ (a “+” in “BW result” indicates that the rat exhibited a weight gain of 20% or more)”. The “Hematology Result” value [3] was “− (a “−” indicates indicates that the rat exhibited a reticulocyte count change of greater than 65%)”.

With `COC[C@H](N)CCCc1cc(-c2cc3cn(-c4ccc([C@@H]5CCC[C@@H](CCNC(C)=N)N5)cc4)c(=O)nc3[nH]2)cc(C(F)(F)F)c1` [Compound 200] the MIC [1] was at most 16 µg/mL, the MIC [2] was at most 16 µg/mL and the “BW Result” value [3] was “+ (a “+” in “BW result” indicates that the rat exhibited a weight gain of 20% or more)”. For the same molecule, the “Hematology Result” value [3] was “− (a “−” indicates indicates that the rat exhibited a reticulocyte count change of greater than 65%)”.

With `CC(=N)NCC[C@@H]1CCC[C@@H](c2ccc(-n3cc4cc(-c5cc(CCC[C@@H](N)C6CC6)cc(C(F)(F)F)c5F)[nH]c4nc3=O)cn2)N1` [Compound 249] the MIC [1] was at most 16 µg/mL, the MIC [2] was at most 16 µg/mL and the “BW Result” value [3] was “+ (a “+” in “BW result” indicates that the rat exhibited a weight gain of 20% or more)”. For the same molecule, the “Hematology Result” value [3] was “+ (a “+” in “Hematology result” indicates indicates that the rat exhibited a reticulocyte count change of 65% or less)”.

For `CC(=N)N[C@H](C)C[C@@H]1CCC[C@@H](c2ccc(-n3cc4cc(-c5cc(CCC[C@H](C)N)cc(Cl)c5F)[nH]c4nc3=O)cc2)N1` [Compound 254], the MIC [1] was at most 16 µg/mL, the MIC [2] was at most 16 µg/mL and the “BW Result” value [3] was “+ (a “+” in “BW result” indicates that the rat exhibited a weight gain of 20% or more)”. The “Hematology Result” value [3] was “+ (a “+” in “Hematology result” indicates indicates that the rat exhibited a reticulocyte count change of 65% or less)”.

With `CC(=N)NCC[C@@H]1CCC[C@@H](c2ccc(-n3cc4cc(-c5cc(CCC[C@H](C)N)cc(Cl)c5F)[nH]c4nc3=O)cc2)N1CCCF` [Compound 264] the MIC [1] was at most 16 µg/mL, the MIC [2] was at most 16 µg/mL and the “BW Result” value [3] was “+ (a “+” in “BW result” indicates that the rat exhibited a weight gain of 20% or more)”. For the same molecule, the “Hematology Result” value [3] was “+ (a “+” in “Hematology result” indicates indicates that the rat exhibited a reticulocyte count change of 65% or less)”.

For `CC(=N)NCC[C@@H]1CCC[C@@H](c2ccc(-n3cc4cc(-c5cc(CCC[C@H](C)N)cc(Cl)c5F)[nH]c4nc3=O)cc2)N1CCCO` [Compound 290], the MIC [1] was at most 16 µg/mL, the MIC [2] was at most 16 µg/mL and the “BW Result” value [3] was “+ (a “+” in “BW result” indicates that the rat exhibited a weight gain of 20% or more)”. For the same molecule, the “Hematology Result” value [3] was “+ (a “+” in “Hematology result” indicates indicates that the rat exhibited a reticulocyte count change of 65% or less)”.

In the case of `CC(=N)NCC[C@@H]1CCC[C@@H](c2ccc(-n3cc4cc(-c5cc(CCC[C@H](C)N)c(C(F)(F)F)cc5F)[nH]c4nc3=O)cc2)N1` [Compound 317], the MIC [1] is reported as at most 16 µg/mL, the MIC [2] is reported as at most 16 µg/mL and the “BW Result” value [3] is reported as “− (a “−” indicates that the rat exhibited a weight gain of less than 20%)”. For the same molecule, the “Hematology Result” value [3] was “− (a “−” indicates indicates that the rat exhibited a reticulocyte count change of greater than 65%)”.

With `CCCN1[C@H](CCNC(C)=N)CCC[C@H]1c1ccc(-n2cc3cc(-c4cc(CCC[C@H](C)N)cc(Cl)c4F)[nH]c3nc2=O)cc1` [Compound 360] the MIC [1] was at most 16 µg/mL, the MIC [2] was at most 16 µg/mL and the “BW Result” value [3] was “+ (a “+” in “BW result” indicates that the rat exhibited a weight gain of 20% or more)”. For the same molecule, the “Hematology Result” value [3] was “+ (a “+” in “Hematology result” indicates indicates that the rat exhibited a reticulocyte count change of 65% or less)”.

In the case of `CSc1cc(-n2cc3cc(-c4cc(CCC[C@@H](N)C5CC5)cc(Cl)c4F)[nH]c3nc2=O)ccc1[C@@H]1CCC[C@@H](CCNC(=N)N)N1` [RX-04B], the “MIC, peak of unimodal distribution” value (Enterobacteriaceae) is reported as 1 µg/mL, the MIC (E. coli DH10B; [5]) is reported as 0.5 µg/mL (≈ 0.752 µM) and the MIC ([4]; Escherichia coli) is reported as 0.5 µg/mL (≈ 0.752 µM).

With `N=C(N)NCC[C@@H]1CCC[C@@H](c2ccc(-n3cc4cc(-c5cc(CCC[C@@H](N)CO)cc(Cl)c5F)[nH]c4nc3=O)cc2F)N1` [RX-04C] the “MIC, peak of unimodal distribution” value (Enterobacteriaceae) was 2 µg/mL, the MIC (E. coli DH10B; [5]) was 0.5 µg/mL (≈ 0.797 µM) and the MIC ([4]; Escherichia coli) was 0.5 µg/mL (≈ 0.797 µM). It also gave an MIC (P. aeruginosa) of at least 16 µg/mL.

With `C[C@H](N)CCCc1cc(Cl)c(F)c(-c2cc3cn(-c4ccc([C@@H]5CCC[C@@H](CCNC(=N)CN)N5)cc4)c(=O)nc3[nH]2)c1` [RX-04D] the “MIC, peak of unimodal distribution” value (Enterobacteriaceae) was 2 µg/mL, the MIC (E. coli DH10B; [5]) was 1 µg/mL (≈ 1.65 µM) and the MIC ([4]; Escherichia coli) was 1 µg/mL (≈ 1.65 µM). For the same molecule, the “relative activity among analogues” value (A. baumannii) was “least active analogue” and the MIC (P. aeruginosa) was at least 16 µg/mL.

Work on colistin [reference compound] yielded an MIC (E. coli DH10B) of 0.25 µg/mL and an MIC ([4]; MCR-1 Transformant) of 4 µg/mL.
